Experimental data published in patent US8785460B2, “Tricyclic compounds and use thereof” (Takeda Pharmaceutical Company Limited, priority 2008, dated 2014).

Experiments:
[1] = target: T1, human CRF1 receptor (Homo sapiens, UniProt P34998); assay: Measurement of CRF Binding Inhibitory Rate (receptor binding experiment with 125I-CRF); settings: human CRF1 receptor expressing CHO cellular membrane fraction, 50 pM 125I-CRF, room temperature 1.5 hr, 0.05 nM to 10 μM of compound; read-out: IC50 values (CRF binding inhibition)
T1 construct: expressed in transfected cells; host or cells: CHO cells (membrane fraction)
T1 sequence (P34998 24-415): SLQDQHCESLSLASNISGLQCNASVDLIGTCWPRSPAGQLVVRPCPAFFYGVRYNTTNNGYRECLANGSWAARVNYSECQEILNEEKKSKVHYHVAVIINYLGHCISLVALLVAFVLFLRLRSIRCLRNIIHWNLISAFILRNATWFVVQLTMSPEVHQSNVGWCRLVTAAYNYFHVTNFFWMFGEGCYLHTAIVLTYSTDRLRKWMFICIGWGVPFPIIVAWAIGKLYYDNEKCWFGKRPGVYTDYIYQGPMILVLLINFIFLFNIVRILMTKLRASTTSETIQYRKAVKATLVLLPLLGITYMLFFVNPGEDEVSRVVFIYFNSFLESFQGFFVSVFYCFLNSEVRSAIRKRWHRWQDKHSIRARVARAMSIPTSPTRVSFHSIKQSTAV

SMILES	melting point [°C]	IC50 [1] [nM]
O=C(OC(c1ccc(Cl)c2nc3n(c12)CCCN3c1ccc(Cl)cc1Cl)C1CC1)C1CC1 (centres unmarked) [Example 478, 1-[9-Chloro-1-(2,4-dichlorophenyl)-1,2,3,4-tetrahydropyrimido[1,2-a]benzimidazol-6-yl](cyclopropyl)methyl cyclopropanecarboxylate]	168 to 170	< 1000
COCC(=O)OC(c1ccc(Cl)c2nc3n(c12)CCCN3c1ccc(Cl)cc1Cl)C1CC1 (centres unmarked) [Example 479]	159 to 161	< 1000
CCC(OC(=O)C1CC1)c1ccc(Cl)c2nc3n(c12)CCCN3c1ccc(OC)cc1Cl (centres unmarked) [Example 482, 1-[9-Chloro-1-(2-chloro-4-methoxyphenyl)-1,2,3,4-tetrahydropyrimido[1,2-a]benzimidazol-6-yl]propyl cyclopropanecarboxylate]	130 to 132	< 1000
CCOC(c1ccc(Cl)c2nc3n(c12)CCCN3c1ccc(Cl)cc1Cl)C1CC1 (centres unmarked) [Example 483, 9-Chloro-6-[cyclopropyl(ethoxy)methyl]-1-(2,4-dichlorophenyl)-1,2,3,4-tetrahydropyrimido[1,2-a]benzimidazole]	138 to 140	< 1000
CCN(CC)c1cccc2nc3n(c12)CCN(C)C3c1ccc(Cl)cc1Cl (centres unmarked) [Example 506, 1-(2,4-Dichlorophenyl)-N,N-diethyl-2-methyl-1,2,3,4-tetrahydropyrazino[1,2-a]benzimidazol-6-amine]	186 to 187	< 1000
CCN(CC)c1cccc2nc3n(c12)CCCNC3c1ccc(Cl)cc1Cl (centres unmarked) [Example 509, 1-(2,4-Dichlorophenyl)-N,N-diethyl-2,3,4,5-tetrahydro-1H-[1,4]diazepino[1,2-a]benzimidazol-7-amine]	186 to 188	< 1000
CCN(CC)c1cccc2nc3n(c12)CCCN=C3c1ccc(Cl)cc1Cl [Example 511, 1-(2,4-Dichlorophenyl)-N,N-diethyl-4,5-dihydro-3H-[1,4]diazepino[1,2-a]benzimidazol-7-amine]	93 to 94	< 1000
